Test results reported in paper PMC7037447, “Syntheses of L-Rhamnose-Linked Amino Glycerolipids and Their Cytotoxic Activities against Human Cancer Cells” (Molecules, 2020).
Like-named read-outs stand apart in the source and are kept apart here.

How the values were obtained:
JIMT-1 [1] = assay: MTS cell viability assay, 48 h; assay type: cell-based, human; settings: JIMT-1, 48 h
Procedure: (§1) The cells were incubated with increasing concentrations of the compounds (0–30 µM) for 48 h followed by assessment of cell viability using the MTS assay. […] This compound carries a primary amino group at the sn-3 position of the glycerolipid and L-rhamno sugar at the sn-2 position via an α-rhamnosidic linkage.
(§2) The cell lines were cultured from frozen stocks originally obtained from ATCC (Manassas, VA, USA). MDA-MB-231, JIMT-1, DU145, MDA-MB-468, Hs578t and MDA-MB-453 were grown in DMEM medium supplemented with 10% FBS. BT-474 cells were grown in DMEM/F12 medium supplemented with 10% FBS. MiaPaCa2 was cultured in DMEM supplemented with 10% FBS and 2.5% horse serum. All the media contained penicillin/streptomycin. U-251 and U-87 in Eagle MEM supplemented by 10% FBS, 1% Non-essential amino acids, 1 mM sodium pyruvate and 2 mM glutamine. BT-549 was cultured in RPMI 1640 medium supplemented with 10% FBS.
(§3) The effects of the GAELs on the viability of the epithelial cancer cell lines were determined as previously described. Briefly, equal numbers of the cells were dispersed into 96-well plates. After 24 h, the cells were incubated with the compounds (0–30 µM) for 48 h. MTS reagent [3-(4,5-dimethylthiazol-2-yl)-5-(3-carboxymethoxyphenyl)-2-(4-sulfophenyl)-2H-tetrazolium, inner salt; Promega, Madison, WI, USA] (20% v/v) was subsequently added and the plates were incubated for 1–4 h in a CO2 incubator followed by measurement of the medium at OD490 with a plate reader (Molecular Devices). Wells with media but no cells were treated in similar fashion and the values utilized as blank.

PC-3 [2] = assay: MTS cell viability assay, 48 h; assay type: cell-based, human; settings: PC-3, 48 h
Procedure: as §1, §3

[3] = tested on: human epithelial cancer cell lines: breast (MDA-MB-231, JIMT-1), pancreas (MiaPaCa2) and prostate (DU-145, PC-3); assay: MTS cell viability assay, 48 h, across the panel of cell lines; assay type: cell-based; settings: for CC50: read-out: CC50 values across the cell lines; for Cytotoxicity against the cancer cells: highest dose tested 30 µM, data not shown
Procedure: as §1, §2, §3

MiaPaCa2 [4] = assay: MTS cell viability assay, 48 h; assay type: cell-based, human
Procedure: as §1, §2
as §3, with “Devices).” for “Devices). Wells with media but no cells were treated in similar fashion and the values utilized as blank.”

DU-145 [5] = assay: MTS cell viability assay, 48 h; assay type: cell-based, human; settings: DU-145, 48 h
Procedure: as §1, §2
as §3, with “Devices).” for “Devices). Wells with media but no cells were treated in similar fashion and the values utilized as blank.”

MDA-MB-231 [6] = assay: MTS cell viability assay, 48 h; assay type: cell-based, human; settings: MDA-MB-231, 48 h
Procedure: […] […] This compound carries a primary amino group at the sn-3 position of the glycerolipid and L-rhamno sugar at the sn-2 position via an α-rhamnosidic linkage.
as §2
as §3, with “After 24 h, the cells were incubated with the compounds (0–30 µM) for 48 h.” left out, “Devices).” for “Devices). Wells with media but no cells were treated in similar fashion and the values utilized as blank.”

DU-145 [7] = tested on: DU-145; design: method as in PMID 28177244; settings: cited from earlier work
MiaPaCa2 [8] = tested on: MiaPaCa2; design: method as in PMID 28177244; settings: cited from earlier work
MDA-MB-231 [9] = tested on: MDA-MB-231; design: method as in PMID 28177244; settings: cited from earlier work
JIMT-1 [10] = tested on: JIMT-1; design: method as in PMID 28177244; settings: cited from earlier work
PC-3 [11] = tested on: PC-3; design: method as in PMID 28177244; settings: cited from earlier work
[12] = tested on: human epithelial cancer cell lines: breast (MDA-MB-231, JIMT-1), pancreas (MiaPaCa2) and prostate (DU-145, PC-3); design: method as in PMID 28177244; settings: range over all cell lines; read-out: CC50 values across the cell lines; cited from earlier work
JIMT-1 [13] = assay: Cell membrane integrity, ethidium homodimer-1 (EthD-1) staining; assay type: cell-based; settings: JIMT-1, 0.01%, 10 min
Procedure: (§4) After determining that the mechanism of cell death of compound 3 is independent of caspases-mediated apoptosis, we evaluated if cell death was due to membrane disruption or lysis using the cell impermeant ethidium homodimer-1 (EthD-1) dye that emits red fluorescence upon binding to DNA [13, 14]. DU-145 and JIMT-1 were treated with compound 3 at 10 and 15 µM, respectively. After 4–6 h, the cells were treated with EthD-1 dye and monitored under fluorescence microscopy.
(§5) Equal numbers of JIMT-1 and DU145 cells were dispersed into 96-well plates. After 24 h the cells were incubated with varying concentration of compounds 3 or 4 (4–6 µM) for 5–6 h. Subsequently, 2 µM of the cell membrane impermeant dye, ethidium homodimer-1 (EthD-1 (Molecular Probes, Eugene, OR, USA) that emits red fluorescence upon binding to DNA was added and the cells analysed by fluorescence microscopy. EthD-1 staining was compared to negative controls with no treatment and positive control treated with 0.01% Triton X-100 for 10 min.
(§6) Figure 5 Evaluation of effect of compound 3 on cell membrane of DU-145 and JIMT-1 cell lines using cell impermeant ethidium homodimer-1 (EthD-1) dye that emits red fluorescence upon binding to DNA.

DU-145 [14] = assay: as above; assay type: cell-based; settings: DU-145, 0.01%, 10 min
Procedure: as §4, §5, §6

[15] = Homo sapiens, MTS, read-out: CC50
[16] = Homo sapiens, 48 h, range or bound over all cell lines, 48 h, MTS
[17] = Homo sapiens, MIA PaCa-2, MiaPaCa2, 48 h, MTS, read-out: CC50

“1-Hexadecyl-2R-methoxyl-3-O-α-L-rhamnopyranosyl-sn-glycerol [Compound 2]” gave a CC50 (JIMT-1 [1]; MTS, read-out: CC50) of 28 µM, a CC50 (PC-3 [2]; MTS, read-out: CC50) of 25 µM and a CC50 ([3]; range or bound over all cell lines, 48 h, MTS) of at least 21.5 µM. For the same molecule, the CC50 (MiaPaCa2 [4]; MiaPaCa2, 48 h, MTS, read-out: CC50) was over 30 µM, the CC50 (DU-145 [5]; MTS, read-out: CC50) was 25 µM and the CC50 (MDA-MB-231 [6]; MTS, concentration decreasing cell viability by 50% relative to untreated control, read-out: CC50) was 26 µM.

`O=C(O)CCCc1ccc(N(CCCl)CCCl)cc1` [Chlorambucil, reference compound] gave a CC50 (JIMT-1 [1]; Homo sapiens) of over 150 µM, a CC50 (PC-3 [2]; Homo sapiens) of over 150 µM and a CC50 ([3]; Homo sapiens, 48 h) of over 150 µM. The CC50 (MiaPaCa2 [4]; Homo sapiens, MIA PaCa-2, 48 h) was over 150 µM, the CC50 (DU-145 [5]; Homo sapiens) was over 150 µM and the CC50 (MDA-MB-231 [6]; Homo sapiens) was over 150 µM.

In the case of `CCCCCCCCCCCCCCCCOCC(CO[C@@H]1O[C@@H](CO)[C@H](O)[C@@H](O)[C@@H]1N)OC` (stereo partly drawn) [Compound 1], the CC50 (DU-145 [7]) is given as 12.5 µM, the CC50 (MiaPaCa2 [8]) is given as 7.5 µM and the CC50 (MDA-MB-231 [9]) is given as 11 µM. For the same molecule, the CC50 (JIMT-1 [10]) was 6.5 µM, the CC50 (PC-3 [11]) was 12.5 µM and the CC50 [12] was 6.5 to 12 µM.

For `CCCCCCCCCCCCCCCCOCC(CNC(=O)CCc1ccc(O)cc1)O[C@@H]1O[C@@H](C)[C@H](O)[C@@H](O)[C@H]1O` (stereo partly drawn) [Compound 4], the CC50 (JIMT-1 [1]; [15]) was 25 µM, the CC50 (PC-3 [2]; [15]) was 21.5 µM and the CC50 [3, 16] was at least 21.5 µM. It also gave a CC50 (MiaPaCa2 [4]; [17]) of over 30 µM, a CC50 (DU-145 [5]; [15]) of 30 µM and a CC50 (MDA-MB-231 [6]; Homo sapiens, MTS, concentration decreasing cell viability by 50% relative to untreated control, read-out: CC50) of 23 µM.

Molecule `CCCCCCCCCCCCCCCCOCC(CN)OC1OC(CO)C(O)C(O)C1O` [Compound 5, 3-Amino-1-hexadecyloxyl-2R-O-β-L-glucopyranosyl-sn-glycerol] has a CC50 (JIMT-1 [1]; [15]) of over 30 µM, a CC50 (PC-3 [2]; [15]) of over 30 µM and a CC50 [3, 16] of over 30 µM. For the same molecule, the Loss of viability ([3]; depending on the cell line, up to 30 µM, 48 h) was 0–35%, the CC50 (MiaPaCa2 [4]; [17]) was over 30 µM and the CC50 (DU-145 [5]; [15]) was over 30 µM.

For `CCCCCCCCCCCCCCCCOCC(CN)OC1OC(CN)C(O)C(O)C1O` [Compound 6, 3-Amino-1-hexadecyloxyl-2R-(6′-amino-6′deoxy-O-α-L-mannopyranosyl)-sn-glycerol], the CC50 (JIMT-1 [1]; [15]) was 12.5 µM, the CC50 (PC-3 [2]; [15]) was 25 µM and the “Times less active than glycolipid 3” value ([3]; CC50 compared with 3) was 2- to 4. The CC50 [3, 16] was 12.5 to 25 µM, the CC50 (MiaPaCa2 [4]; [17]) was 19 µM and the CC50 (DU-145 [5]; [15]) was 17.5 µM.

In the case of `CCCCCCCCCCCCCCCCOCC(CO[C@H]1O[C@H](CO)[C@@H](O)[C@H](O)[C@H]1N)OC` (stereo partly drawn) [Compound 7], the CC50 (DU-145 [7]) is given as 9 µM, the CC50 (MiaPaCa2 [8]) is given as 9 µM and the CC50 (JIMT-1 [10]) is given as 9 µM. The CC50 (PC-3 [11]) was 13.5 µM.

In the case of `OC[C@@H]1OC(O)[C@@H](O)[C@H](O)[C@H]1O` (stereo partly drawn) [L-glucose], the “Cytotoxicity against the cancer cells” value [3] is reported as “not cytotoxic”.

For `OC[C@@H]1OC(O)[C@H](O)[C@H](O)[C@H]1O` (stereo partly drawn) [L-mannose], the “Cytotoxicity against the cancer cells” value [3] was “not cytotoxic”.

With `C[C@H](O)[C@H](O)[C@@H](O)[C@@H](O)C=O` [rhamnose, L-Rhamnose] the “Cytotoxicity against the cancer cells” value [3] was “not cytotoxic”.

For Triton X-100 [reference compound], the “EthD-1 staining, positive control” value (JIMT-1 [13]) was “stained bright red” and the “EthD-1 staining, positive control” value (DU-145 [14]) was “stained bright red”.
